# From patent publication US12441768B2, “Compositions and methods for treating endometriosis” (EndoMet Biosciences, Inc., priority 2018, dated 2025)
# Where a SMILES comes first, the peptide text is derived from it.
# Legend:
# [1] = target: Wnt-responsive promoter (TCF/LEF); assay: Wnt-dependent luciferase reporter assay; format: cell-based, murine
# Outline: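 EC50 (uM) derived from inhibition of luminescence in Wnt3a-stimulated murine 3T3 cells expressing luciferase under a TCF/LEF promoter, with peptides added across a concentration range and vehicle as control.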
# β-catenin = target: T1, β-catenin (Homo sapiens, UniProt P35222); assay: KD50 measurement using competitive fluorescence polarization (FP) with labelled TCF4; format: binding; conditions: fluorescence polarization, β-catenin; for Kd: read-out: β-Cat FP KD
# T1 sequence (P35222 1-781): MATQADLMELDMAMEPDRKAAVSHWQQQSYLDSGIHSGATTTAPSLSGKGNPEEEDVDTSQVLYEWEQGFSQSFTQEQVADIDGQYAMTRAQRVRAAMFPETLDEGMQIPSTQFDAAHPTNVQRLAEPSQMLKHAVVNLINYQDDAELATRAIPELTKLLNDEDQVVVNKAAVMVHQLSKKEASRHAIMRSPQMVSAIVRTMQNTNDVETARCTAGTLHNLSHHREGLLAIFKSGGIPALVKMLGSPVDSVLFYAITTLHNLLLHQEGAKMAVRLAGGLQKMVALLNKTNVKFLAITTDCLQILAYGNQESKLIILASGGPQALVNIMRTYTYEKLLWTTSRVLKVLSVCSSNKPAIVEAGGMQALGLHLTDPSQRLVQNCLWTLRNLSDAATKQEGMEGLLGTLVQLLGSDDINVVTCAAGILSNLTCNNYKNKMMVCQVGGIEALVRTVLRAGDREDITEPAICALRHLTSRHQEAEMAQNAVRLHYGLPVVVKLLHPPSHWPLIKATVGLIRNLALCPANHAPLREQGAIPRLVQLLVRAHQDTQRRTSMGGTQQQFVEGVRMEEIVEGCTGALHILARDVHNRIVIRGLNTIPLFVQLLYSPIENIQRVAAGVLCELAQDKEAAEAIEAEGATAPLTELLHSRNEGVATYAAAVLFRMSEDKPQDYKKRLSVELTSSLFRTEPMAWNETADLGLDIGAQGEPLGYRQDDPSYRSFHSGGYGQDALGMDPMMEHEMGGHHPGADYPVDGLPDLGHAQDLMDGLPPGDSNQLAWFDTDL
# Outline: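 Labelled TCF4 (5 nM) mixed with 100 nM β-catenin at room temperature; inhibitor added as serial dilutions from 10 nM to 30 uM. Polarization read at excitation 470 nm/emission 520 nm; binding displacement lowers polarization. Three independent runs.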
# [2] = % Viability non-Wnt responsive cells
EC50 [1] [µM],Kd (β-catenin) [µM],β-Cat FP Hill slope (β-catenin),SMILES,viability [2] [%]
22.5 to 30,> 30,,"CC[C@H](C)[C@@H]1NC(=O)[C@H](CC(C)C)NC(=O)[C@H](Cc2ccccc2)NC(=O)[C@H](Cc2c[nH]c3ccccc23)NC(=O)[C@@H](N)CCCCNC(=O)C[C@@H](C(=O)O)NC(=O)[C@H](Cc2c[nH]c3ccccc23)NC(=O)[C@H](C)NC(=O)[C@H](CO)NC1=O [compound 202] (HELM PEPTIDE1{K.W.F.L.I.S.A.W.D}$PEPTIDE1,PEPTIDE1,1:R3-9:R3$$$V2.0)",92.1
< 7.5,> 30,,CC[C@H](C)[C@H](NC(=O)[C@H](CC(C)C)NC(=O)[C@@H](NC(=O)[C@H](Cc1c[nH]c2ccccc12)NC(=O)[C@@H](N)Cc1c[nH]cn1)[C@@H](C)CC)C(=O)N[C@@H](CS)C(=O)N[C@@H](Cc1ccccc1)C(=O)N[C@@H](Cc1c[nH]c2ccccc12)C(=O)NCC(=O)O [compound 118] (H-HWILICFWG-OH),99.9
7.5 to 15,> 30,,CC[C@H](C)[C@H](NC(=O)[C@H](CC(C)C)NC(=O)[C@@H](NC(=O)[C@H](Cc1c[nH]c2ccccc12)NC(=O)[C@H](CCSC)NC(=O)[C@@H](N)CCCNC(=N)N)[C@@H](C)CC)C(=O)N[C@@H](CO)C(=O)N[C@@H](Cc1ccccc1)C(=O)N[C@@H](Cc1c[nH]c2ccccc12)C(=O)NCC(=O)O [compound 124] (H-RMWILISFWG-OH),102
< 7.5,1 to 10,0.7,"CC[C@H](C)[C@@H]1NC(=O)[C@H](CC(C)C)NC(=O)[C@H](Cc2ccccc2)NC(=O)[C@H](Cc2c[nH]c3ccccc23)NC(=O)[C@@H](NC(C)=O)CCCCNC(=O)CC[C@@H](C(=O)O)NC(=O)[C@H](Cc2c[nH]c3ccccc23)NC(=O)[C@H](Cc2ccccc2)NC(=O)[C@H](C)NC1=O [compound 200] (HELM PEPTIDE1{[ac].K.W.F.L.I.A.F.W.E}$PEPTIDE1,PEPTIDE1,2:R3-10:R3$$$V2.0)",81.4
< 7.5,0.4 to 1,0.7,"CC[C@H](C)[C@@H]1NC(=O)[C@H](CC(C)C)NC(=O)[C@H](Cc2ccccc2)NC(=O)[C@H](Cc2c[nH]c3ccccc23)NC(=O)[C@@H](NC(C)=O)CCCCNC(=O)CC[C@@H](C(=O)O)NC(=O)[C@H](Cc2c[nH]c3ccccc23)NC(=O)[C@H](Cc2ccccc2)NC(=O)[C@H](CO)NC1=O [compound 199] (HELM PEPTIDE1{[ac].K.W.F.L.I.S.F.W.E}$PEPTIDE1,PEPTIDE1,2:R3-10:R3$$$V2.0)",89.8
< 7.5,> 30,,"CC[C@H](C)[C@@H]1NC(=O)[C@H](CC(C)C)NC(=O)[C@H](Cc2ccccc2)NC(=O)[C@H](Cc2c[nH]c3ccccc23)NC(=O)[C@H](CCSC)NC(=O)[C@@H](N)CCCCNC(=O)CC[C@@H](C(=O)N[C@@H](Cc2c[nH]c3ccccc23)C(=O)NCC(=O)O)NC(=O)[C@H](CS)NC1=O [compound 180] (HELM PEPTIDE1{K.M.W.F.L.I.C.E.W.G}$PEPTIDE1,PEPTIDE1,1:R3-8:R3$$$V2.0)",103
< 7.5,0.4 to 1,2.18,CC[C@H](C)[C@H](NC(=O)[C@H](CC(C)C)NC(=O)[C@H](Cc1ccccc1)NC(=O)[C@H](Cc1c[nH]c2ccccc12)NC(=O)[C@H](CCSC)NC(C)=O)C(=O)N[C@@H](CS)C(=O)N[C@@H](Cc1ccccc1)C(=O)N[C@@H](Cc1c[nH]c2ccccc12)C(=O)NCC(=O)O [compound 198] (Ac-MWFLICFWG-OH),81.4
7.5 to 15,> 30,,CC[C@H](C)[C@H](NC(=O)[C@H](CC(C)C)NC(=O)[C@H](Cc1ccccc1)NC(=O)[C@H](Cc1c[nH]c2ccccc12)NC(=O)[C@H](CCSC)NC(=O)[C@H](CCCNC(=N)N)NC(=O)[C@H](CO)NC(=O)[C@@H](N)CCSC)C(=O)N[C@@H](CO)C(=O)N[C@@H](CC(C)C)C(=O)N[C@@H](Cc1c[nH]c2ccccc12)C(=O)NCC(=O)O [compound 68] (H-MSRMWFLISLWG-OH),91.2
> 30,> 30,,CC[C@H](C)[C@H](NC(=O)[C@H](CC(C)C)NC(=O)[C@H](Cc1ccccc1)NC(=O)[C@H](Cc1c[nH]c2ccccc12)NC(=O)[C@H](Cc1c[nH]c2ccccc12)NC(=O)[C@H](CCCNC(=N)N)NC(=O)[C@H](CO)NC(=O)[C@@H](N)CCCCN)C(=O)N[C@@H](CO)C(=O)N[C@@H](Cc1ccccc1)C(=O)N[C@@H](Cc1c[nH]c2ccccc12)C(N)=O [compound 95] (H-KSRWWFLISFW-NH2),109
> 30,1 to 10,0.76,CC[C@H](C)[C@H](NC(=O)[C@H](CC(C)C)NC(=O)[C@H](Cc1ccccc1)NC(=O)[C@H](C)N(C)C(=O)[C@H](CCSC)NC(=O)[C@H](CCCNC(=N)N)NC(=O)[C@H](CO)NC(=O)[C@@H](N)CCSC)C(=O)N[C@@H](CO)C(=O)N[C@@H](Cc1ccccc1)C(=O)N[C@@H](Cc1c[nH]c2ccccc12)C(=O)NCC(=O)O [compound 50] (HELM PEPTIDE1{M.S.R.M.[meA].F.L.I.S.F.W.G}$$$$V2.0),96.7
> 30,> 30,,CC[C@H](C)[C@H](NC(=O)[C@H](CC(C)C)NC(=O)[C@H](Cc1ccccc1)NC(=O)[C@H](Cc1c[nH]c2ccccc12)NC(=O)[C@H](CCSC)NC(=O)[C@H](CCCNC(=N)N)NC(=O)[C@H](CCC(N)=O)NC(=O)[C@@H](N)CCSC)C(=O)N[C@@H](CO)C(=O)N[C@@H](Cc1ccccc1)C(=O)N[C@@H](Cc1c[nH]c2ccccc12)C(N)=O [compound 74] (H-MQRMWFLISFW-NH2),91.2
< 7.5,> 30,,CSCC[C@H](NC(=O)[C@H](CCCNC(=N)N)NC(=O)[C@H](CO)NC(=O)[C@@H](N)CCSC)C(=O)N[C@@H](Cc1c[nH]c2ccccc12)C(=O)N[C@@H](Cc1ccccc1)C(=O)N[C@@H](CC(C)C)C(=O)N[C@@H](Cc1ccccc1)C(=O)N[C@@H](CO)C(=O)N[C@@H](Cc1ccccc1)C(=O)N[C@@H](Cc1c[nH]c2ccccc12)C(=O)NCC(=O)O [compound 63] (H-MSRMWFLFSFWG-OH),97.9
> 30,> 30,,"CC[C@H](C)[C@@H]1NC(=O)[C@H](CC(C)C)NC(=O)[C@H](Cc2ccc(O)cc2)NC(=O)[C@H](Cc2c[nH]c3ccccc23)NC(=O)[C@H](CCSC)NC(=O)[C@H](CCCNC(=N)N)NC(=O)[C@H](CO)NC(=O)[C@@H](N)CCCCNC(=O)[C@H](Cc2c[nH]c3ccccc23)NC(=O)[C@H](Cc2ccccc2)NC(=O)[C@H](CO)NC1=O [compound 32] (HELM PEPTIDE1{K.S.R.M.W.Y.L.I.S.F.W}$PEPTIDE1,PEPTIDE1,1:R3-11:R2$$$V2.0)",93
< 7.5,< 0.4,2.99,CC[C@H](C)[C@H](NC(=O)[C@H](CC(C)C)NC(=O)[C@@H](NC(=O)[C@H](Cc1c[nH]c2ccccc12)NC(=O)[C@H](CCSC)NC(C)=O)[C@@H](C)CC)C(=O)N[C@@H](CO)C(=O)N[C@@H](Cc1ccccc1)C(=O)N[C@@H](Cc1c[nH]c2ccccc12)C(=O)NCC(=O)O [compound 165] (Ac-MWILISFWG-OH),102
